According to US20210079039A1, “COMPOSITIONS AND METHODS FOR THE SELECTIVE DELIVERY OF THERAPEUTIC AND IMAGING AGENTS” (Avelas Biosciences, Inc., priority 2018, published 2021):
Numbered stars: 1 amine (or outer) side, 2 acyl side, 3 side chain; on linkers, the order of the positions; unused ones are H or OH. Square brackets hold non-standard residues; d marks the D form. Peptide text beside a SMILES is read from it. * marks the point of attachment. ξ: configuration not given here. Dolaproine(all-ξ) = COC(C(C)C(=O)[*:2])C1CCCN1[*:1]; Dolaproine = CO[C@@H]([C@@H]1CCCN1)[C@@H](C)C(=O)O; Hexanoyl(6-maleimido) = O=C1C=CC(=O)N1CCCCCC(=O)*; X1 = CC(C)[C@@H](C(=O)[*:2])N(C)C[C@@H](C)N[*:1]; Dil = CC[C@H](C)[C@H](NC)[C@@H](CC(=O)O)OC; X2 = CCC(C)C(C(CC(=O)[*:2])OC)N(C)[*:1]; X5 = CC(C)[C@@H](C(=O)*)N(C)C[C@@H](C)N; X4 = CC(C)[C@@H](C(=O)*)N(C)C[C@H](C)N; Cit = NC(=O)NCCC[CH](N)C(=O)O; NMeV = CN[CH](C(=O)O)C(C)C; ξCit = NC(=O)NCCCC(N)C(=O)O; X3 = CC(N*)C(O)c1ccccc1; Me2Gly = CN(C)CC(=O)*

Legend:
[1] = test system: HT1080 Cells; test: Active Cellular Cytotoxic (ACC) molecules efficacy in HT1080 cells in vitro assay; assay type: cell-based; conditions: Homo sapiens, HT-1080, 96 h, four days incubation, Prestoblue, average error of 38%
Experimental: Method: Plate cells one day prior to start of assay in 96 well black with clear bottom plates (Corning #3603), 2×10^4 cells per well in 100 μL of standard growth media (according to ATCC). Grow cells to 90% confluency.
Before start of assay rinse cells 1× with DPBS. Add compounds in a 3-fold serial dilution in triplicate (range e.g. 40 μM-18 nM), 100 μL per well in standard growth media.
Incubate four days then assay cell viability as described below. Remove media and rinse 1× with DPBS, then add 100 μL per well 10% Prestoblue Cell viability reagent (Thermo Fisher Scientific #A13261) in complete media. Return to incubator for two hours then read plate on SpectraMax M2e, bottom read excitation 555 emission 585 cut-off 570 which measures number of live cells. Cell viability was plotted versus compound concentration and data were fit to Log inhibitor vs response curve in GraphPad Prism and EC50 were determined.
Table 14 provides cellular activity data for exemplary ACCs (compound EC50 for reduction of viable cells).

[2] = test system: HT-1080 human fibrosarcoma tumor xenograft; test: HT-1080 human fibrosarcoma tumor xenograft therapeutic model; assay type: in vivo, athymic nude mice; conditions: 0.6 to 3.0 mg/kg of cytotoxic agent component, IV on days 0 and 3, tumor volume at day 9
Experimental: Female athymic nude mice (8-10 weeks old) purchased from Charles River (Wilmington, 01887, MA) were used after 4-7 day of acclimatization period. Institutional Animal Care and Use Committee (IACUC) approved protocols #EB11-002-009-1 and CP-17-09. HT-1080 human fibrosarcoma tumor cells from ATCC (CCL-121™) were grown using standard cell culture techniques. Tumor cells (1×10^8 tumor cells/mL) were suspended in DPBS/Matrigel™ (1:1 vol) and implanted subcutaneously (50 μL tumor cell suspension/mouse) into the upper mammary fat pad or right flank of mice with individual identification number (ear tag). Four to seven days later when the average tumor volume was about 50-100 mm^3, mice were randomized into different experimental groups to have similar averaged (Mean±SEM) tumor volume and dosed with (i) vehicle and (ii) different doses of test compounds. Each group typically had 4 mice. For each involved tumor-bearing mouse, the tumor volume (mm^3) was measured using a caliper and calculated as follows: tumor volume=width^2×length/2. Test compounds were administered intravenously (tail vein) twice (two administrations 3 days apart) in conscious restrained tumor-bearing mice throughout the study. Individual tumor volume, body weight as well as clinical signs were recorded during the study. Each study was terminated on day 12 post-dosing initiation. Mice were euthanized by intracardiac ketamine-xylazine overdose after recording the last individual body weight and tumor volume. For each experimental group and study day, the tumor volumes from all mice were averaged and expressed as Mean±SD. In order to directly and objectively compare anti-tumor activity of candidate SDM's, tumor volume was assessed at the same Day 9 timepoint (6 days after the cessation of test compound administration) for each experimental cohort of test compound-treated group(s) and vehicle. Graphs show tumor volume in cubic millimeters versus time. […] Compound administration is indicated by downward arrow over data point on day 0 and 3.

CC[C@H](C)[C@@H]([C@@H](CC(=O)N1CCC[C@H]1[C@H](OC)[C@@H](C)C(=O)N[C@@H](Cc1ccccc1)C(=O)O)OC)N(C)C(=O)[C@@H](NC(=O)[C@H](C(C)C)N(C)C(=O)CN(C)C)C(C)C [ACC-1] (Me2Gly-[NMeV]V[Dil][Dolaproine]F-OH)
EC50 [1]: 2100 nM

CC[C@H](C)[C@@H]([C@@H](CC(=O)N1CCC[C@H]1[C@H](OC)[C@@H](C)C(=O)N[C@@H](Cc1ccccc1)C(=O)O)OC)N(C)C(=O)[C@@H](NC(=O)[C@H](C(C)C)N(C)C[C@@H](C)NC(=O)CN)C(C)C [ACC-8] (H-G[X1]V[Dil][Dolaproine]F-OH)
EC50 [1]: 910 nM

CC[C@H](C)[C@@H]([C@@H](CC(=O)N1CCC[C@H]1[C@H](OC)[C@@H](C)C(=O)N[C@@H](Cc1ccccc1)C(=O)O)OC)N(C)C(=O)[C@@H](NC(=O)[C@H](C(C)C)N(C)C(=O)CN)C(C)C [ACC-5] (HELM PEPTIDE1{G.[meV].V.[CC[C@H](C)[C@@H]([C@@H](CC(=O)[*:2])OC)N(C)[*:1]].[CO[C@H]([C@@H](C)C(=O)[*:2])[C@@H]1CCCN1[*:1]].F}$$$$V2.0)
EC50 [1]: 710 nM

CC[C@H](C)[C@@H]([C@@H](CC(=O)N1CCC[C@H]1[C@H](OC)[C@@H](C)C(=O)N[C@@H](Cc1ccccc1)C(=O)O)OC)N(C)C(=O)[C@@H](NC(=O)[C@H](C(C)C)N(C)C(=O)CNC)C(C)C [ACC-4] (HELM PEPTIDE1{[Sar].[meV].V.[CC[C@H](C)[C@@H]([C@@H](CC(=O)[*:2])OC)N(C)[*:1]].[CO[C@H]([C@@H](C)C(=O)[*:2])[C@@H]1CCCN1[*:1]].F}$$$$V2.0)
EC50 [1]: 4400 nM

CC[C@H](C)[C@@H]([C@@H](CC(=O)N1CCC[C@H]1[C@H](OC)[C@@H](C)C(=O)N[C@@H](Cc1ccccc1)C(=O)O)OC)N(C)C(=O)[C@@H](NC(=O)[C@H](C(C)C)N(C)C[C@@H](C)N)C(C)C [ACC-10] (X5-V[Dil][Dolaproine]F-OH)
EC50 [1]: 1020 nM

CC[C@H](C)[C@@H]([C@@H](CC(=O)N1CCC[C@H]1[C@H](OC)[C@@H](C)C(=O)N[C@@H](Cc1ccccc1)C(=O)OC)OC)N(C)C(=O)[C@@H](NC(=O)[C@H](C(C)C)N(C)C[C@@H](C)NC(=O)C(CCCNC(N)=O)NC(=O)[C@@H](NC(=O)CCCCCN1C(=O)C=CC1=O)C(C)C)C(C)C (stereo partly drawn) [SDM-344] ({Hexanoyl(6-maleimido)}-V[ξCit][X1]V[Dil][Dolaproine]F-OMe)
Efficacy (percent tumor growth inhibition versus vehicle) [2]: Medium (Medium: ≥29% inhibition to <80% inhibition)

CC[C@H](C)[C@@H]([C@@H](CC(=O)N1CCC[C@H]1[C@H](OC)[C@@H](C)C(=O)N[C@@H](Cc1ccccc1)C(=O)O)OC)N(C)C(=O)[C@@H](NC(=O)[C@H](C(C)C)N(C)C[C@H](C)N)C(C)C [ACC-11] (X4-V[Dil][Dolaproine]F-OH)
EC50 [1]: 1740 nM

CC[C@H](C)[C@@H]([C@@H](CC(=O)N1CCC[C@H]1[C@H](OC)[C@@H](C)C(=O)N[C@@H](Cc1ccccc1)C(=O)NC)OC)N(C)C(=O)[C@@H](NC(=O)[C@H](C(C)C)N(C)C(=O)CNC(=O)[C@H](CCCNC(N)=O)NC(=O)[C@@H](NC(=O)CCCCCN1C(=O)C=CC1=O)C(C)C)C(C)C [SDM-380] ({Hexanoyl(6-maleimido)}-V[Cit]G[NMeV]V[Dil][Dolaproine]F-NHMe)
Efficacy (percent tumor growth inhibition versus vehicle) [2]: Low (Low: <29% inhibition)

CCC(C)C(C(CC(=O)N1CCCC1C(OC)C(C)C(=O)NC(C)C(O)c1ccccc1)OC)N(C)C(=O)C(NC(=O)C(C(C)C)N(C)C(=O)CNC(=O)C(CCCNC(N)=O)NC(=O)C(NC(=O)CCCCCN1C(=O)C=CC1=O)C(C)C)C(C)C (stereo not drawn) [SDM-320, maleimidocaproyl-valine-citrulline-GlyMMAE] ({Hexanoyl(6-maleimido)}-V[Cit]G[NMeV]V[X2][Dolaproine(all-ξ)]-X3; configuration not given here)
Efficacy (percent tumor growth inhibition versus vehicle) [2]: Low (Low: <29% inhibition)
